pIC50: −log10 of the molar value. Where only a bound is given, the exact number is not on record here.

Chain of NaV1.3 (Q9NY46 whole entry): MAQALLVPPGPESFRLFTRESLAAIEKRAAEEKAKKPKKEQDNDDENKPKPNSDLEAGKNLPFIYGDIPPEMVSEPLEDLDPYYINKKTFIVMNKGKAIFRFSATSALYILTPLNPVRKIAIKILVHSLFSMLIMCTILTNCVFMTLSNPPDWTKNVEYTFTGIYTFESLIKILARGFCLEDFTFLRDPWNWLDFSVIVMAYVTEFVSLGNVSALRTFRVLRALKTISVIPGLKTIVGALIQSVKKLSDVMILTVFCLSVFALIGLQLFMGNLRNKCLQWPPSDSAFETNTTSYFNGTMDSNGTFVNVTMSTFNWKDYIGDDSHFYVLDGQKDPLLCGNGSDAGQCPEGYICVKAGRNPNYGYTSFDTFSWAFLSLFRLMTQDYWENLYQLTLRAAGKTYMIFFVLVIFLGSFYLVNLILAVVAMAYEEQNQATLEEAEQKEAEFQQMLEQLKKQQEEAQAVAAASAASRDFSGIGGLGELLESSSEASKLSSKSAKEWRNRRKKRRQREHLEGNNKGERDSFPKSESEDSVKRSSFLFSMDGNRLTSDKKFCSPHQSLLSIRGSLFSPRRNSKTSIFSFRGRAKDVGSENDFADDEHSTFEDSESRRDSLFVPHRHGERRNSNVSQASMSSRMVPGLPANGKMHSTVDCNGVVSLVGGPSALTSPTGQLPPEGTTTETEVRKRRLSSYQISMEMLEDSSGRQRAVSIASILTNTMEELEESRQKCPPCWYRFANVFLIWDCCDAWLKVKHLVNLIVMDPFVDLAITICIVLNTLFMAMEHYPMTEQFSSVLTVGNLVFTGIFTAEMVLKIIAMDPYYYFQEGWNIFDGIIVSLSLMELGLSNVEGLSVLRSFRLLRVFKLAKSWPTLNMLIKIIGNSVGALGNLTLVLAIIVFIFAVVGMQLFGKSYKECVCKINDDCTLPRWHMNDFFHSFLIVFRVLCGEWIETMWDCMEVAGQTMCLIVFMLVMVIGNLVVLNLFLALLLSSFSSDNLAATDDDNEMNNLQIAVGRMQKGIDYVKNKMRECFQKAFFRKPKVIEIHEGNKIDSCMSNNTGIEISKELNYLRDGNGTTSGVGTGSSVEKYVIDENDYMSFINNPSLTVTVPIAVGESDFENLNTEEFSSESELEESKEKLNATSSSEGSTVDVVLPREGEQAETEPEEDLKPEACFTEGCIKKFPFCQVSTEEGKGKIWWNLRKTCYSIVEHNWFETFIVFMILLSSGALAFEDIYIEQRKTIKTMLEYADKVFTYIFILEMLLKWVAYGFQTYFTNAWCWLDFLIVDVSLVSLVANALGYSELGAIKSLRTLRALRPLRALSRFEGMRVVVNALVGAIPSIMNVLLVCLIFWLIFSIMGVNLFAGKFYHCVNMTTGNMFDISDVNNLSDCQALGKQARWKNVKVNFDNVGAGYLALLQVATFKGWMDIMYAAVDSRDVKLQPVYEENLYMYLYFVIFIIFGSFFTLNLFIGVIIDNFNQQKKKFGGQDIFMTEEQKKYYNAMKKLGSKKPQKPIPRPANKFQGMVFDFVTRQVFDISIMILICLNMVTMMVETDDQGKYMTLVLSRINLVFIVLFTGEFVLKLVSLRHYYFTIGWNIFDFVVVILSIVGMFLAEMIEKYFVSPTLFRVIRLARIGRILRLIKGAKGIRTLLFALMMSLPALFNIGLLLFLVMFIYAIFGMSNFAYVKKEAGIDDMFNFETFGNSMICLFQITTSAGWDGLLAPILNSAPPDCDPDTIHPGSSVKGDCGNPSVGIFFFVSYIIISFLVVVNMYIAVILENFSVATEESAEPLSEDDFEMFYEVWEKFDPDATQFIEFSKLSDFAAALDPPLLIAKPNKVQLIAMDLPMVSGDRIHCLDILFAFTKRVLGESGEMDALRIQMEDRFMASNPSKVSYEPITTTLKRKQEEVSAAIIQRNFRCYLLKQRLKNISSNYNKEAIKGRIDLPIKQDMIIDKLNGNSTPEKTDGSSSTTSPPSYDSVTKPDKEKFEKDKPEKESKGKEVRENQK

The experiment addresses NaV1.3 (Homo sapiens, UniProt Q9NY46). Description: VIPR optical membrane potential assay, NaV1.3 inhibition. The experiment is classed as cell-based. On the set-up: expressed in transfected cells; host or cells: HEK293. The conditions noted are these: activity against NaV 1.3 channel. Here is the method:
Antagonist properties of test compounds were assessed as follows. Cells expressing the NaV of interest were placed into microtiter plates. After an incubation period, the cells were stained with fluorescent dyes sensitive to the transmembrane potential. The test compounds were added to the microtiter plate. The cells were stimulated with either a chemical or electrical means to evoke a NaV dependent membrane potential change from unblocked channels, which was detected and measured with trans-membrane potential-sensitive dyes. Antagonists were detected as a decreased membrane potential response to the stimulus.
The following is an example of how NaV1.3 inhibition activity is measured using the optical membrane potential method#2. Other subtypes are performed in an analogous mode in a cell line expressing the NaV of interest.
HEK293 cells stably expressing NaV1.3 are plated into 96-well microtiter plates. After an appropriate incubation period, the cells are stained with the voltage sensitive dyes CC2-DMPE/DiSBAC2(3) as follows.
2× CC2-DMPE=20 μM CC2-DMPE: 10 mM CC2-DMPE is vortexed with an equivalent volume of 10% pluronic, followed by vortexing in required amount of HBSS containing 10 mM HEPES. Each cell plate will require 5 mL of 2× CC2-DMPE. 50 μL of 2× CC2-DMPE is to wells containing washed cells, resulting in a 10 μM final staining concentration. The cells are stained for 30 minutes in the dark at RT.
2× DISBAC2(3) with ABSC1=6 μM DISBAC2(3) and 1 mM ABSC1: The required amount of 10 mM DISBAC2(3) is added to a 50 ml conical tube and mixed with 1 μL 10% pluronic for each mL of solution to be made and vortexed together. Then HBSS/HEPES is added to make up 2× solution. Finally, the ABSC1 is added.
The 2× DiSBAC2(3) solution can be used to solvate compound plates. Note that compound plates are made at 2× drug concentration. Wash stained plate again, leaving residual volume of 50 μL. Add 50 μL/well of the 2× DiSBAC2(3) w/ABSC1. Stain for 30 minutes in the dark at RT.
The instrument comprises a microtiter plate handler, an optical system for exciting the coumarin dye while simultaneously recording the coumarin and oxonol emissions, a waveform generator, a current- or voltage-controlled amplifier, and a device for inserting electrodes in well. Under integrated computer control, this instrument passes user-programmed electrical stimulus protocols to cells within the wells of the microfilter plate.
Insert or use electrodes into each well to be assayed.
Use the current-controlled amplifier to deliver stimulation wave pulses for 3 s. Two seconds of pre-stimulus recording are performed to obtain the un-stimulated intensities. Five seconds of post-stimulation recording are performed to examine the relaxation to the resting state.
Data are analyzed and reported as normalized ratios of background-subtracted emission intensities measured in the 460 nm and 580 nm channels. Background intensities are then subtracted from each assay channel. Background intensities are obtained by measuring the emission intensities during the same time periods from identically treated assay wells in which there are no cells. The response as a function of time is then reported as the ratios obtained using the following formula: […]
The data is further reduced by calculating the initial (Ri) and final (Rf) ratios. These are the average ratio values during part or all of the pre-stimulation period, and during sample points during the stimulation period. The response to the stimulus ? =Rf/Ri is then calculated.
Control responses are obtained by performing assays in the presence of a compound with the desired properties (positive control), such as tetracaine, and in the absence of pharmacological agents (negative control). Responses to the negative (N) and positive (P) controls are calculated as above. The compound antagonist activity A is defined as:
[formula] where R is the ratio response of the test compound.
Turning to `O=C(COc1ccnc2c(C(F)(F)F)cccc12)N1Cc2ccc(S(=O)(=O)Nc3ncns3)cc2C1` [Compound 122], the pIC50 (usually the IC50 on a negative log10 scale, so that one unit is a factor of ten) was over 5.70.

`O=C(c1ccccc1F)N1CCc2ccc(S(=O)(=O)Nc3nccs3)cc2C1` [Compound 123] showed a pIC50 of 5.30 to 5.70. `C[C@@H](C(=O)N1Cc2ccc(S(=O)(=O)Nc3ncns3)cc2C1)n1ccc2c(F)cccc21` [Compound 124] had a pIC50 of over 5.70. As for `CC(Oc1ccccc1)C(=O)N1CCc2cc(S(=O)(=O)Nc3ncns3)ccc21` (stereo not drawn) [Compound 125], the figure is over 5.70. In the case of `O=C(c1ccc(Cl)c(Cl)c1)n1ccc2cc(S(=O)(=O)Nc3nccs3)ccc21` [Compound 126], the pIC50 is 5.30 to 5.70.

In the case of `O=C(CCn1ccc2cc(Cl)ccc21)N1Cc2ccc(S(=O)(=O)Nc3ncns3)cc2C1` [Compound 127], the pIC50 was over 5.70. As for `Cc1ccc(C(=O)n2ccc3cc(S(=O)(=O)Nc4nccs4)ccc32)cc1F` [Compound 128], the figure is over 5.70. As for `O=C(COc1cccnc1)N1CCc2cc(S(=O)(=O)Nc3nccs3)ccc21` [Compound 129], the figure is under 5.30; as for `C[C@@H](C(=O)N1CCc2cc(S(=O)(=O)Nc3ncns3)ccc21)n1ccc2ccccc21` [Compound 130], under 5.30; as for `O=C(COc1cccc(Cl)c1)N1CCc2cc(S(=O)(=O)Nc3nccs3)ccc21` [Compound 131], over 5.70. `O=C(c1ccc(C(F)(F)F)cc1)N1CCCc2cc(S(=O)(=O)Nc3nccs3)ccc21` [Compound 132]: the pIC50 was 5.30 to 5.70. Take `O=C(CN1CCCc2cc(Cl)ccc21)N1CCc2cc(S(=O)(=O)Nc3ccncn3)ccc21` [Compound 133]: the pIC50 was under 5.30. Regarding `Cc1ccccc1OCC(=O)N1CCc2cc(S(=O)(=O)Nc3nccs3)ccc21` [Compound 134], the pIC50 was over 5.70. `CCc1nnc(NS(=O)(=O)c2ccc3c(c2)CN(C(=O)[C@@H](C)N2CCCc4cc(Cl)ccc42)C3)s1` [Compound 135] had a pIC50 of 5.30 to 5.70. `O=C(Cc1c(Cl)cccc1Cl)N1CCc2cc(S(=O)(=O)Nc3nccs3)ccc21` [Compound 136] showed a pIC50 of over 5.70. `O=C(CN1CCc2ccc(F)cc2C1)N1CCc2cc(S(=O)(=O)Nc3nccs3)ccc21` [Compound 137] gave a pIC50 of over 5.70. For the compound `Cc1cccc(C)c1OCC(=O)N1CCc2cc(S(=O)(=O)Nc3nccs3)ccc21` [Compound 138], the pIC50 is over 5.70.

With `CC(C)(C)c1ccc(OCC(=O)N2CCCc3cc(S(=O)(=O)Nc4ncns4)ccc32)cc1` [Compound 139], the negative logarithm of the IC50 (pIC50) was over 5.70.

The compound `O=C(COc1ccnc2c(C(F)(F)F)cccc12)N1CCc2ccc(S(=O)(=O)Nc3nccs3)cc2C1` [Compound 140] showed a pIC50 of over 5.70. As for `CC(Oc1ccc(OC(F)(F)F)cc1)C(=O)N1CCc2ccc(S(=O)(=O)Nc3nccs3)cc2C1` (stereo not drawn) [Compound 141], the figure is under 5.30; as for `C[C@@H](C(=O)N1CCc2cc(S(=O)(=O)Nc3ncns3)ccc21)n1ccc2c(F)cccc21` [Compound 142], over 5.70. The compound `O=C(CNc1ccccc1F)N1CCc2cc(S(=O)(=O)Nc3nccs3)ccc21` [Compound 144] gave a pIC50 of over 5.70. As for `C[C@H](C(=O)N1Cc2ccc(S(=O)(=O)Nc3ccc(Cl)nn3)cc2C1)N1CCCc2cc(Cl)ccc21` [Compound 146], the figure is under 5.30; as for `O=C(COc1ccc(Cl)cc1)N1CCc2cc(S(=O)(=O)Nc3ncns3)ccc21` [Compound 147], over 5.70. Take `CC(Oc1ccccc1Cl)C(=O)N1CCc2cc(S(=O)(=O)Nc3nccs3)ccc21` (stereo not drawn) [Compound 148]: the pIC50 is over 5.70. For `O=C(COc1ccccc1Cl)N1CCc2ccc(S(=O)(=O)Nc3nccs3)cc2C1` [Compound 149] the value was over 5.70. Compound `CC(C)(C)c1ccc(OCC(=O)N2CCc3ccc(S(=O)(=O)Nc4nccs4)cc3C2)cc1` [Compound 150] had a pIC50 of under 5.30.

Turning to `O=C(c1ccc(Cl)cc1Cl)N1CCc2ccc(S(=O)(=O)Nc3nccs3)cc2C1` [Compound 151], the pIC50 is 5.30 to 5.70. As for `Cc1nnc(NS(=O)(=O)c2ccc3c(c2)CN(C(=O)COc2ccnc4c(C(F)(F)F)cccc24)CC3)s1` [Compound 152], the pIC50 is under 5.30. The compound `O=C(CN1CCC(F)(F)CC1)N1CCc2cc(S(=O)(=O)Nc3nccs3)ccc21` [Compound 153] gave a pIC50 of under 5.30. As for `O=C(COc1ccc(F)c(Cl)c1)N1CCCc2cc(S(=O)(=O)Nc3nccs3)ccc21` [Compound 154], the figure is over 5.70; as for `CC(C)(C)c1ccc(OCC(=O)N2Cc3ccc(S(=O)(=O)Nc4nccs4)cc3C2)cc1` [Compound 155], over 5.70.

Compound `O=C(CCCOc1ccc(Cl)cc1Cl)N1CCc2cc(S(=O)(=O)Nc3ncccn3)ccc21` [Compound 156] showed a pIC50 of under 5.30. `O=S(=O)(Nc1nccs1)c1ccc2c(c1)CCN2CCNc1nc2ccccc2s1` [Compound 157] showed a negative logarithm of the IC50 (pIC50) of under 5.30. `COc1ccc(CCC(=O)N2CCc3cc(S(=O)(=O)Nc4nccs4)ccc32)cc1` [Compound 159] had a pIC50 of over 5.70. For `CC(Oc1ccccc1Cl)C(=O)n1ccc2cc(S(=O)(=O)Nc3nccs3)ccc21` (stereo not drawn) [Compound 160], the pIC50 was 5.30 to 5.70. For `O=C(CNC1CCC1)N1CCc2cc(S(=O)(=O)Nc3nccs3)ccc21` [Compound 161] the value was under 5.30; for `O=C(c1cc(Cl)ccc1Cl)n1ccc2cc(S(=O)(=O)Nc3nccs3)ccc21` [Compound 162], 5.30 to 5.70; for `O=C(Oc1ccccc1)N1CCc2cc(S(=O)(=O)Nc3nccs3)ccc21` [Compound 163], 5.30 to 5.70. `C[C@@H](C(=O)N1Cc2ccc(S(=O)(=O)Nc3ncns3)cc2C1)n1ccc2ccccc21` [Compound 164] had a pIC50 of over 5.70. In the case of `COc1cccc(NCC(=O)N2CCc3cc(S(=O)(=O)Nc4nccs4)ccc32)c1` [Compound 165], the pIC50 is under 5.30. Consider `O=C(c1ccc(C(F)(F)F)cc1)N1CCc2cc(S(=O)(=O)Nc3nccs3)ccc21` [Compound 166], for which the pIC50 was over 5.70. Turning to `O=C(COc1ccc(OC(F)(F)F)cc1)N1CCc2cc(S(=O)(=O)Nc3ncns3)ccc21` [Compound 167], the pIC50 is over 5.70. For the compound `COc1ccc(CC(=O)N2CCc3ccc(S(=O)(=O)Nc4nccs4)cc3C2)cc1` [Compound 168], the negative-log IC50 (pIC50) was under 5.30.

`O=C(CN1CCC(F)(F)C1)N1CCCc2cc(S(=O)(=O)Nc3nccs3)ccc21` [Compound 169] gave a pIC50 of under 5.30. `O=C(CNCc1ccncc1)N1CCc2cc(S(=O)(=O)Nc3nccs3)ccc21` [Compound 171]: the pIC50 was under 5.30. In turn, `O=C(CCn1ccc2cc(Cl)ccc21)N1CCc2cc(S(=O)(=O)Nc3ncns3)ccc21` [Compound 172] showed a pIC50 of over 5.70.

The compound `CC(C)(Oc1ccc(Cl)cc1)C(=O)n1ccc2cc(S(=O)(=O)Nc3nccs3)ccc21` [Compound 173] had a pIC50 of 5.30 to 5.70. `CC(Oc1cccc(Cl)c1)C(=O)N1CCc2ccc(S(=O)(=O)Nc3nccs3)cc2C1` (stereo not drawn) [Compound 174] gave a pIC50 of 5.30 to 5.70. Turning to `O=C(CN1CCC(F)(F)CC1)N1CCCc2cc(S(=O)(=O)Nc3nccs3)ccc21` [Compound 175], the pIC50 was under 5.30. For the compound `O=C(c1ccccc1C(F)(F)F)n1ccc2cc(S(=O)(=O)Nc3nccs3)ccc21` [Compound 176], the pIC50 is 5.30 to 5.70. Compound `O=C(CCn1ccc2cc(Cl)ccc21)N1Cc2ccc(S(=O)(=O)Nc3nccs3)cc2C1` [Compound 177] gave a pIC50 of over 5.70.

In turn, `COc1cc(C(=O)N2CCc3cc(S(=O)(=O)Nc4nccs4)ccc32)ccc1C` [Compound 178] showed a pIC50 of 5.30 to 5.70. `Cc1ccc(C(=O)N2CCc3cc(S(=O)(=O)Nc4ncns4)ccc32)cc1Cl` [Compound 179] showed a negative-log IC50 (pIC50) of over 5.70.

The values above are taken from patent US7786137B2, “Bicyclic derivatives as modulators of ion channels” (Vertex Pharmaceuticals Incorporated, priority 2005, dated 2010).
